Where “and” joins values, the source holds several entries; their conditions need not be identical. Equal entries are not always repeated. Toxic doses and inconclusive results are not listed.
System: L1210 leukemia ip in BDF1 mice, survival T/C
Assay: NCI In Vivo Anticancer Drug Screen. Data for tumor model L1210 Leukemia (intraperitoneal) in B6D2F1 (BDF1) mice
Conditions: endpoint: mean survival time, higher = longer survival
How it was run: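 Transplanted-tumor mice were given test agent; controls received vehicle only. Survival readings from the two groups were divided (treated over control).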

[1] = dose: 100.0 mg/kg/injection, schedule: Q04DX003 (ip), vehicle: Klucel (hydroxypropylcellulose) (HPC)
[2] = dose: 200.0 mg/kg/injection, schedule: Q04DX003 (ip), vehicle: Klucel (hydroxypropylcellulose) (HPC)
[3] = dose: 400.0 mg/kg/injection, schedule: Q04DX003 (ip), vehicle: Klucel (hydroxypropylcellulose) (HPC)
[4] = dose: 100.0 mg/kg/injection, schedule: Q01DX001 (ip), vehicle: saline
[5] = dose: 200.0 mg/kg/injection, schedule: Q01DX001 (ip), vehicle: saline
[6] = dose: 400.0 mg/kg/injection, schedule: Q01DX001 (ip), vehicle: saline
[7] = dose: 50.0 mg/kg/injection, schedule: Q01DX009 (ip), vehicle: saline
[8] = dose: 100.0 mg/kg/injection, schedule: Q01DX009 (ip), vehicle: saline
[9] = dose: 200.0 mg/kg/injection, schedule: Q01DX009 (ip), vehicle: saline
[10] = dose: 100.0 mg/kg/injection, schedule: Q01DX001 (ip), vehicle: carboxymethylcellulose (CMC)
[11] = dose: 200.0 mg/kg/injection, schedule: Q01DX001 (ip), vehicle: carboxymethylcellulose (CMC)
[12] = dose: 400.0 mg/kg/injection, schedule: Q01DX001 (ip), vehicle: carboxymethylcellulose (CMC)
[13] = dose: 100.0 mg/kg/injection, schedule: Q04DX003 (ip), vehicle: saline
[14] = dose: 100.0 mg/kg/injection, schedule: Q01DX009 (ip), vehicle: Klucel (hydroxypropylcellulose) (HPC)
[15] = dose: 25.0 mg/kg/injection, schedule: Q01DX009 (ip), vehicle: Klucel (hydroxypropylcellulose) (HPC)
[16] = dose: 50.0 mg/kg/injection, schedule: Q01DX009 (ip), vehicle: Klucel (hydroxypropylcellulose) (HPC)
[17] = dose: 200.0 mg/kg/injection, schedule: Q04DX003 (ip), vehicle: saline

O=C(NCC(O)CCl)c1ccc([N+](=O)[O-])cc1 (stereo unspecified)
T/C (dose: 100.0 mg/kg/injection, schedule: Q01DX001 (ip), vehicle: Klucel (hydroxypropylcellulose) (HPC)): 95 % of control
T/C [1]: 97 % of control
T/C (dose: 200.0 mg/kg/injection, schedule: Q01DX001 (ip), vehicle: Klucel (hydroxypropylcellulose) (HPC)): 103 % of control
T/C [2]: 105 % of control
T/C (dose: 400.0 mg/kg/injection, schedule: Q01DX001 (ip), vehicle: Klucel (hydroxypropylcellulose) (HPC)): 95 % of control
T/C [3]: 92 % of control

C=C(Cl)CN1C(=O)c2ccccc2C1=O
T/C (dose: 100.0 mg/kg/injection, schedule: Q04DX002 (ip), vehicle: Klucel (hydroxypropylcellulose) (HPC)): 93 % of control
T/C (dose: 200.0 mg/kg/injection, schedule: Q04DX002 (ip), vehicle: Klucel (hydroxypropylcellulose) (HPC)): 93 % of control
T/C (dose: 400.0 mg/kg/injection, schedule: Q04DX002 (ip), vehicle: Klucel (hydroxypropylcellulose) (HPC)): 101 % of control

CC(C)CCCC(C)C1CCC2C3CC=C4CC(OC(=O)CCl)CCC4(C)C3CCC12C (stereo unspecified)
T/C (dose: 50.0 mg/kg/injection, schedule: Q01DX001 (ip), vehicle: saline): 101 % of control
T/C [4]: 95 % of control
T/C [5]: 95 % of control
T/C [6]: 101 % of control

Cc1ccc2c(c1)P(O)(=S)c1cc(Cl)ccc1O2 (stereo unspecified)
T/C (dose: 25.0 mg/kg/injection, schedule: Q01DX009 (ip), vehicle: saline): 102 % of control
T/C [7]: 108 % of control
T/C [8]: 108 % of control
T/C [9]: 108 % of control

NC(CCSCc1ccc(N(CCCl)CCCl)cc1)C(=O)O (stereo unspecified)
T/C (dose: 3.0 mg/kg/injection, schedule: Q01DX Z (ip), vehicle: saline): 123 % of control
T/C (dose: 8.0 mg/kg/injection, schedule: Q01DX Z (ip), vehicle: saline): 113 % of control
T/C (dose: 12.0 mg/kg/injection, schedule: Q01DX Z (ip), vehicle: saline): 113 % of control
T/C (dose: 36.0 mg/kg/injection, schedule: Q01DX Z (ip), vehicle: saline): 114 % of control
T/C (dose: 54.0 mg/kg/injection, schedule: Q01DX Z (ip), vehicle: saline): 103 % of control and 90 % of control
T/C (dose: 81.0 mg/kg/injection, schedule: Q01DX Z (ip), vehicle: saline): 95 % of control
T/C [10]: 169 % of control
T/C [11]: 182 % of control
T/C [12]: 113 % of control

Cc1ccc(N=Nc2c(N)ccc3ccccc23)cc1
T/C (dose: 100.0 mg/kg/injection, schedule: Q01DX001 (ip), vehicle: other): 100 % of control
T/C (dose: 200.0 mg/kg/injection, schedule: Q01DX001 (ip), vehicle: other): 100 % of control

Cc1cc(C)n2nc(N)nc2n1
T/C [10]: 101 % of control
T/C [11]: 95 % of control
T/C [12]: 95 % of control

O=C(Cl)COc1cc(Cl)c(Cl)cc1Cl
T/C (dose: 100.0 mg/kg/injection, schedule: Q04DX002 (ip), vehicle: gum acacia): 106 % of control
T/C (dose: 200.0 mg/kg/injection, schedule: Q04DX002 (ip), vehicle: gum acacia): 110 % of control

N#Cc1cncc(-c2ccccc2)c1
T/C (dose: 25.0 mg/kg/injection, schedule: Q04DX003 (ip), vehicle: Klucel (hydroxypropylcellulose) (HPC)): 95 % of control
T/C (dose: 50.0 mg/kg/injection, schedule: Q04DX003 (ip), vehicle: Klucel (hydroxypropylcellulose) (HPC)): 95 % of control
T/C [1]: 89 % of control

N#CSCc1ccccc1
T/C (dose: 75.0 mg/kg/injection, schedule: Q01DX001 (ip), vehicle: carboxymethylcellulose (CMC)): 118 % of control
T/C [1]: 91 % of control
T/C (dose: 150.0 mg/kg/injection, schedule: Q01DX001 (ip), vehicle: carboxymethylcellulose (CMC)): 98 % of control
T/C [2]: 103 % of control
T/C [3]: 94 % of control

O=C(O)/C=C/c1cccc(Br)c1
T/C (dose: 50.0 mg/kg/injection, schedule: Q01DX001 (ip), vehicle: carboxymethylcellulose (CMC)): 101 % of control
T/C [10]: 97 % of control
T/C [11]: 97 % of control
T/C [12]: 101 % of control

BrCc1cccc2ccccc12
T/C (dose: 25.0 mg/kg/injection, schedule: Q01DX009 (ip), vehicle: acetone): 96 % of control
T/C (dose: 50.0 mg/kg/injection, schedule: Q01DX009 (ip), vehicle: acetone): 95 % of control
T/C (dose: 50.0 mg/kg/injection, schedule: Q04DX003 (ip), vehicle: saline): 90 % of control
T/C [4]: 98 % of control
T/C (dose: 100.0 mg/kg/injection, schedule: Q01DX009 (ip), vehicle: acetone): 95 % of control
T/C [13]: 87 % of control
T/C [5]: 102 % of control

BrC1CCCCCC(Br)C12OCCO2 (stereo unspecified)
T/C [14]: 95 % of control
T/C [1]: 102 % of control
T/C (dose: 200.0 mg/kg/injection, schedule: Q01DX009 (ip), vehicle: Klucel (hydroxypropylcellulose) (HPC)): 98 % of control
T/C [2]: 104 % of control
T/C (dose: 400.0 mg/kg/injection, schedule: Q01DX009 (ip), vehicle: Klucel (hydroxypropylcellulose) (HPC)): 101 % of control
T/C [3]: 100 % of control

O=C1CC2(CCCCC2)CO1
T/C (dose: 0.78 mg/kg/injection, schedule: Q04DX003 (ip), vehicle: saline): 100 % of control
T/C (dose: 1.56 mg/kg/injection, schedule: Q04DX003 (ip), vehicle: saline): 100 % of control
T/C (dose: 3.12 mg/kg/injection, schedule: Q04DX003 (ip), vehicle: saline): 103 % of control
T/C (dose: 6.25 mg/kg/injection, schedule: Q04DX003 (ip), vehicle: saline): 103 % of control
T/C (dose: 12.5 mg/kg/injection, schedule: Q04DX003 (ip), vehicle: saline): 92 % of control

CCOP(=O)(OCC)C1C(C)N1C(=O)Nc1ccccc1 (stereo unspecified)
T/C [15]: 106 % of control
T/C [16]: 105 % of control
T/C [14]: 110 % of control
T/C [1]: 101 % of control
T/C [2]: 100 % of control
T/C [3]: 106 % of control

CCNC(=O)c1cc2cccc(OC)c2oc1=N
T/C [13]: 105 % of control
T/C [17]: 97 % of control
T/C (dose: 400.0 mg/kg/injection, schedule: Q04DX003 (ip), vehicle: saline): 90 % of control

O=C(O)CNc1cccnc1
T/C [15]: 95 % of control
T/C [16]: 100 % of control
T/C [14]: 101 % of control

O=P(c1c(F)c(F)c(F)c(F)c1F)(c1c(F)c(F)c(F)c(F)c1F)c1c(F)c(F)c(F)c(F)c1F
T/C (dose: 100.0 mg/kg/injection, schedule: Q01DX001 (ip), vehicle: saline with Tween-80): 91 % of control
T/C (dose: 200.0 mg/kg/injection, schedule: Q01DX001 (ip), vehicle: saline with Tween-80): 91 % of control

NC(N)=NCCCCCC(=O)Oc1ccc([N+](=O)[O-])cc1
T/C [7]: 105 % of control
T/C [8]: 99 % of control and 100 % of control
T/C [13]: 92 % of control
T/C [9]: 100 % of control and 101 % of control
T/C [17]: 92 % of control

O=[N+]([O-])c1cccc2c1/C(=N/O)c1ccccc1-2
T/C [10]: 101 % of control
T/C [11]: 92 % of control
T/C [12]: 98 % of control

CN1CCCC1c1cccnc1 (stereo unspecified)
T/C (dose: 0.5 mg/kg/injection, schedule: Q01DX009 (ip), vehicle: saline): 97 % of control
T/C (dose: 0.5 mg/kg/injection, schedule: Q01DX Z (ip), vehicle: saline): 97 % of control
T/C (dose: 1.0 mg/kg/injection, schedule: Q01DX009 (ip), vehicle: saline): 95 % of control and 87 % of control
T/C (dose: 1.0 mg/kg/injection, schedule: Q01DX Z (ip), vehicle: saline): 94 % of control
T/C (dose: 2.0 mg/kg/injection, schedule: Q01DX Z (ip), vehicle: saline): 95 % of control

CC1=NNC(=O)C1(Cl)c1ccc(N)cc1 (stereo unspecified)
T/C [4]: 102 % of control
T/C [5]: 100 % of control
T/C [6]: 100 % of control

CCOC(=O)CNC(=O)Oc1cc(C)cc(C)c1C
T/C (dose: 100.0 mg/kg/injection, schedule: Q01DX009 (ip), vehicle: saline with Tween-80): 98 % of control
T/C (dose: 200.0 mg/kg/injection, schedule: Q01DX009 (ip), vehicle: saline with Tween-80): 100 % of control
T/C (dose: 400.0 mg/kg/injection, schedule: Q01DX009 (ip), vehicle: saline with Tween-80): 98 % of control

From PubChem BioAssay AID248 (DTP/NCI, 2004)
